The results in this text go back to PMC12850010, “Interaction of cytochrome P450 3A4 with the hydrophilic ligand tetraethylene glycol” (Biochemical and biophysical research communications, 2025).

Data set [1] addresses T1, CYP3A4 (Homo sapiens, UniProt P08684). Put plainly: Spectral binding (equilibrium) titrations of CYP3A4. Conditions: for Kd: human, CYP3A4 protein solution (2 μM), sigmoidal (Hill) fit.
Experimental: (§1) Equilibrium titrations of CYP3A4 were conducted in a Cary 300 spectrophotometer at ambient temperature in 0.1 M phosphate, pH 7.4. […] The binding parameters were determined from fittings to the plot of the absorbance change (peak-to-trough separations in the difference spectra; ΔA) vs ligand concentration.
Data set [2] concerns the target T1, CYP3A4. Conditions: pH 7.4.
Experimental: as §1

T1 sequence (P08684 with tags, fused parts or gaps): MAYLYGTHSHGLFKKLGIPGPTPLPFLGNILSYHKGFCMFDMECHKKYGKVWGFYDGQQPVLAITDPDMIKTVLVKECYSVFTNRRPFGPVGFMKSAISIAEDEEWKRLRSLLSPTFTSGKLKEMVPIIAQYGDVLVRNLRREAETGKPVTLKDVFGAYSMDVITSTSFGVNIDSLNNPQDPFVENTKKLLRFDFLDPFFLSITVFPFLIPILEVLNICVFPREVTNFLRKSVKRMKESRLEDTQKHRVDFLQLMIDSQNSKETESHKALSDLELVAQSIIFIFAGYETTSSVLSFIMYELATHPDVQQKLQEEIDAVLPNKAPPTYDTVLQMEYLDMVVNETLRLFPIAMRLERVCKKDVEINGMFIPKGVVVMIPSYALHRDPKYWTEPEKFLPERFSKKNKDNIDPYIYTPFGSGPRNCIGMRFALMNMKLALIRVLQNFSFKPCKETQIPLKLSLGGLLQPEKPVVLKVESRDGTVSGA

`Cc1ncc2n1-c1ccc(Cl)cc1C(c1ccccc1F)=NC2` [Midazolam]: the “decrease of binding affinity for WT CYP3A4 in the presence of TEG” value at CYP3A4 [1] (15 mM TEG vs no TEG) came to 30%.
Regarding `CC(=O)[C@H]1CC[C@H]2[C@@H]3CCC4=CC(=O)CC[C@]4(C)[C@H]3CC[C@]12C` [Progesterone], the Kd (commonly the constant that tells how readily two partners part at equilibrium) on CYP3A4 [1] (pH 7.4, S50, 15 mM TEG) amounted to 16 ± 2 µM; on CYP3A4 [1] (pH 7.4, S50, no TEG), 17 ± 1 µM. Further, the “nH (Hill coefficient)” value at CYP3A4 [2] amounted to 1.6 ± 0.1.
